# Data from patent US9901618B2, “Cell-permeable peptide system for treating diseases caused by glutamate excitotoxicity” (priority 2014, dated 2018).
# Entries after “also recorded” stand apart in the source; their conditions may differ.
# Legend:
# JNK = test: Western blot of JNK phosphorylation in cortical synaptosomes; settings: for phosphorylation of JNK (p-JNK/JNK) vs. control=100%: wild-type synaptosomes, stimulus alone (100 μM NMDA 10 min Mg2+-free; AMPA 10 min; KCl 90 s)
# Syntaxin 1a = test: Western blot of STX1a (S14) phosphorylation in synaptosomes; type: cell-based, mouse
# [1] = test system: presynaptic release of glutamate; test: Glutamate ([3H]D-Asp) release from superfused cortical synaptosomes; type: cell-based, mouse; settings: for exocytotic release of [3H] D-Asp vs. control: C57/BL6 cortical synaptosomes, 8 mM KCl 90 s, 100 μM NMDA 10 min Mg2+-free, 50 μM (S)-AMPA 10 min
# [2] = test system: presynaptic NMDA receptors; test: mEPSC patch-clamp recording in cortex slices (NMDA-dependent presynaptic glutamate release); type: cell-based, mouse; settings: for effect on D-AP5 block of NMDA presynaptic receptor (mEPSC inter-events): peptide added separately at 10 μM, 30 min before recording
# [3] = test system: presynaptic NMDA receptors; test: Paired-pulse ratio of evoked EPSCs, patch-clamp in entorhinal cortex slices; type: cell-based, mouse; settings: D-AP5 50 μM perfusion, C57BL6/J slices
# Protocol: The presynaptic NMDA receptors on the glutamatergic terminals are activated by the spontaneously-released glutamate and, by means of a positive feedback mechanism, determine a tonic liberation of glutamate. Electrophysiological recordings were made in order to investigate the functional role of JNK in the release of glutamate. For this reason, a parameter termed paired-pulse facilitation (PPF) was measured from pyramidal neurons of cerebral slices of entorhinal cortex (EC)-obtained from adult mice C57BL6/J incubated with or without the inhibitor of JNK, L-JNKi1 (2 μM for 30 min). Such paired-pulse facilitation (PPF) is a paradigm studied by means of the electrophysiological recording technique in patch-clamp configuration.
# [4] = synaptosomes treated with D-AP5
compound,measurement,setting,value
"CN[C@H](CC(=O)O)C(=O)O [NMDA, N-Methyl D-Aspartate]",NMDA-induced phosphorylation of JNK,JNK; JNK2-KO mouse synaptosomes,totally eliminated
same,NMDA-induced increase of pJNK vs. control=100%,JNK; JNK3-KO mouse synaptosomes,+76±10%
same,phosphorylation of STX1a (S14) after NMDA alone,Syntaxin 1a; NMDA 10 min,slight but non-significant decrease
same,exocytotic release of [3H] D-Asp vs. control,[1],202±21%
same,NMDA-induced release of [3H] D-Asp with respect to the overflow basal,"[1]; JNK2-KO mouse synaptosomes, NMDA 10 min",28±19%
GRKKRRQRRRPPMSEYNATQSDYRER (SEQ ID NO: 8) (Muridae) [JGRi2],effect on D-AP5 block of NMDA presynaptic receptor (mEPSC inter-events),[2],reduced the functionality of the inhibitor D-AP5
GRKKRRQRRRPPIEQSIEQEEGLNRS (SEQ ID NO: 5) (Muridae) [JGRi1],effect on D-AP5 block of NMDA presynaptic receptor (mEPSC inter-events),[2],reduced the functionality of the inhibitor D-AP5
Cc1onc(O)c1C[C@H](N)C(=O)O [(S)-AMPA],phosphorylation of JNK (p-JNK/JNK) vs. control=100%,JNK,unable to increase the phosphorylation of JNK
same,exocytotic release of [3H] D-Asp vs. control,[1],98±11%
[Cl-].[K+] [KCl],phosphorylation of JNK (p-JNK/JNK) vs. control=100%,JNK,unable to increase the phosphorylation of JNK
same,exocytotic release of [3H] D-Asp vs. control,[1],158±37%
NC(CCCP(=O)(O)O)C(=O)O [D-AP5],paired-pulse ratio (PPR) at 50 ms interval,[3],irreversibly reduced
same,change in pJNK vs. Ctrl (100%) with D-AP5,JNK; [4],+10±8.9%
same,mEPSC amplitude,[2],neither the cumulative amplitude nor the mean of the same events were affected; also recorded: never affected
same,mEPSC inter-event intervals,[2],increase of the cumulative distribution of the inter-event intervals
same,mEPSC inter-event intervals and amplitude,[2],no significant changes
same,mEPSC inter-event intervals (IEI),"[2]; D-AP5, C57BL6/J slices, tetrodotoxin, picrotoxin, MK-801 in pipette",reversible increase
same,change in pSTX1a vs. Ctrl (100%) with D-AP5,Syntaxin 1a; [4],−10±7.2%
